From paper PMC7037732, “Synthesis of Combretastatin A-4 and 3′-Aminocombretastatin A-4 derivatives with Aminoacid Containing Pendants and Study of their Interaction with Tubulin and as Downregulators of the VEGF, hTERT and c-Myc Gene Expression” (Molecules, 2020)
Several values for one entry are separate records, joined by “and”; a condition that tells them apart may be missing. Identical values can stand only once.

Experiments:
c-Myc gene = c-Myc gene expression by RT-qPCR in HT-29 cells; format: cell-based, human; settings: HT-29, 48 h; for mrna remaining at 0.007 µM: 7 nM
Experimental: (§1) The effect on the expression of VEGF, hTERT and c-Myc genes has been studied for CA-4 and its derivatives that show selectivity indexes higher than 0.9 on the HT-29 cell line. The studied derivatives, together with the concentrations to which they have been tested, are CA-4 (15 μM); 4.1 (Gly, 5 μM); 4.5 (L-Pro, 25 μM); 4.9 (L-Met, 25 μM); 6.2 (D-Leu, 25 μM); 6.3 (D-Phe, 25 μM); 6.4 (D-Pro, 25 μM) and 6.5 (D-Ser, 10 μM). The expression of the genes was determined by RT-qPCR methodology, as described in the Materials and Methods section.
(§2) As regards AmCA-4 derivatives, the effect on the expression of the VEGF, hTERT and c-Myc genes has been studied on those that show IC50 in the low nanomolar range on the HT-29 cell line and/or on compounds whose selectivity indexes with respect to this cell line are higher than 1. The studied compounds, together with the concentrations to which they have been tested, are: CA-4 (15 μM), AmCA-4 (15 nM), 7.1 (7 nM), 7.2 (1.5 nM), 7.3 (4 nM), 7.4 (15 nM), 7.5 (2 nM), 7.7 (7 nM), 7.8 (15 nM), 7.9 (30 nM), 8.1 (7 nM), 8.2 (3 nM), 8.3 (10 nM), 8.4 (1.5 nM), 8.5 (4 nM), 8.7 (7 nM), 8.8 (3 nM) and 8.9 (4 nM).
(§3) HT-29 cells at 70–80% confluence were collected, and 1.5 × 10^5 cells were placed in a six-well plate in 1.5 mL of the medium. After 24 h, cells were incubated with the corresponding compounds for 48 h. Cells were collected, and the total cellular RNA from the HT-29 cells was isolated using an Ambion RNA Extraction Kit, according to the manufacturer’s instructions. The cDNA was synthesized by MMLV-RT with […] of extracted RNA and oligo(dT)15, according to the manufacturer’s instructions. Genes were amplified by a thermal cycler and StepOnePlus™ TaqMan® probes. TaqMan® Gene Expression Master Mix Fast, containing the appropriate buffer for the amplification conditions, dNTPs, thermostable DNA polymerase enzyme and a passive reference probe, was used. To amplify each of the genes, the predesigned primers sold by Life Technologies TaqMan® Gene Expression Assays Hs99999903-m1 (β-actin), Hs00900055-m1 (VEGF), Hs00972646-m1 (hTERT) and Hs00153408-m1 (c-Myc) were used.

[1] = tested on: HT-29 (human colon adenocarcinoma); test: Inhibition of cell proliferation (MTT), HT-29; format: cell-based; settings: 48 h of treatment (footnote), average ±SD of three experiments
purified tubulin = test: Critical concentration (CrC) for the assembly of purified tubulin in GAB; format: biochemical; settings: compound 27.5 μM, tubulin 25 μM, glycerol (GAB) and GTP assembly buffer; control 7.9 ± 1.2
Experimental: The effect on the self-assembly of tubulin was determined by measuring the critical concentration (CrC).

hTERT gene = hTERT gene expression by RT-qPCR in HT-29 cells; format: cell-based, human; settings: HT-29, 48 h; for mrna remaining at 0.007 µM: 7 nM
Experimental: as §1, §2, §3

[2] = tested on: HEK-293 (human embryonic kidney cells); test: Inhibition of cell proliferation (MTT), nontumor HEK-293; format: cell-based; settings: 48 h of treatment (footnote), average ±SD of three experiments
VEGF gene = VEGF gene expression by RT-qPCR in HT-29 cells; format: cell-based, human; settings: HT-29, 48 h; for mrna remaining at 0.007 µM: 7 nM
Experimental: as §1, §2, §3

[3] = Homo sapiens, HT-29, 48 h, Table 2
[4] = Homo sapiens, HEK293, 48 h, Table 2
[5] = Homo sapiens, 4 nM, control 100
[6] = Homo sapiens, 15 μM, control (DMSO) 100, normalized to β-actin
[7] = Homo sapiens, 10 nM, control 100
[8] = discussion, concentration per compound
[9] = Homo sapiens, 25 μM, control 100
[10] = Homo sapiens, 3 nM, control 100
[11] = Homo sapiens, 30 nM, control 100
[12] = Homo sapiens, 15 nM, control 100

COc1ccc(/C=C\c2cc(OC)c(OC)c(OC)c2)cc1NC(=O)CNC(=O)OCC1c2ccccc2-c2ccccc21 [Compound 7.1]
mrna remaining at 0.007 µM (c-Myc gene; Homo sapiens, control 100): 58% | IC50 [1, 3]: 7 ± 4 nM | CrC (critical concentration) (purified tubulin): 11 ± 4 µM | mrna remaining at 0.007 µM (hTERT gene; Homo sapiens, control 100): < 70% | IC50 [2, 4]: 3.5 ± 1.9 nM | mrna remaining at 0.007 µM (VEGF gene; Homo sapiens, control 100): 69%

COc1ccc(/C=C\c2cc(OC)c(OC)c(OC)c2)cc1NC(=O)[C@@H](N)CCSC [Compound 8.9]
mrna remaining at 0.004 µM (c-Myc gene; [5]): 70% | IC50 [1, 3]: < 5 nM | IC50 ([1]; Table 2): 4.9 ± 0.1 nM | CrC (critical concentration) (purified tubulin): 8.5 ± 1.2 µM | mrna remaining at 0.004 µM (hTERT gene; [5]): 71% | IC50 [2, 4]: < 5 nM | IC50 ([2]; Table 2): 3.7 ± 0.3 nM | mrna remaining at 0.004 µM (VEGF gene; [5]): 48%

COc1ccc(/C=C\c2cc(OC)c(OC)c(OC)c2)cc1O [CA-4, combretastatin A-4]
mrna remaining at 15 µM (c-Myc gene; [6]): 35% | IC50 ([1]; Homo sapiens, HT-29, Table 1): 4200 ± 500 nM | CrC (critical concentration) (purified tubulin): 21.5 µM and 21.5 ± 0.8 µM | mrna remaining at 15 µM (hTERT gene; [6]): 85% | IC50 ([2]; Homo sapiens, HEK293, Table 1): 25000 ± 3000 nM | mrna remaining at 15 µM (VEGF gene; [6]): 40%

COc1ccc(/C=C\c2cc(OC)c(OC)c(OC)c2)cc1NC(=O)[C@@H](N)C(C)C [Compound 8.3]
mrna remaining at 0.01 µM (c-Myc gene; [7]): 62% | IC50 [1, 3]: 13.3 ± 0.5 nM | CrC (critical concentration) (purified tubulin): 9.3 ± 0.5 µM | mrna remaining at 0.01 µM (hTERT gene; [7]): < 70% | IC50 [2, 4]: 7.6 ± 0.3 nM | mrna remaining at 0.01 µM (VEGF gene; [7]): 33%

COc1ccc(/C=C\c2cc(OC)c(OC)c(OC)c2)cc1NC(=O)CN [Compound 8.1]
mrna remaining at 0.007 µM (c-Myc gene; Homo sapiens, control 100): 54% | IC50 [1, 3]: 10 ± 2 nM | CrC (critical concentration) (purified tubulin): 10.2 ± 1.8 µM | mrna remaining at 0.007 µM (hTERT gene; Homo sapiens, control 100): > 100% | IC50 [2, 4]: 10 ± 2 nM | mrna remaining at 0.007 µM (VEGF gene; Homo sapiens, control 100): 24%

COc1ccc(/C=C\c2cc(OC)c(OC)c(OC)c2)cc1OCC(=O)N[C@@H](CCSC)C(=O)O [Compound 4.9]
downregulation of c-Myc gene expression (c-Myc gene; [8]): more than 55% | mrna remaining at 25 µM (c-Myc gene; [9]): 37% | IC50 ([1]; Homo sapiens, HT-29, 48 h, Table 1): 32000 ± 6000 nM | CrC (critical concentration) (purified tubulin): 8.6 ± 0.4 µM | downregulation of hTERT gene expression (hTERT gene; [8]): more than 55% | mrna remaining at 25 µM (hTERT gene; [9]): 38% | IC50 ([2]; Homo sapiens, HEK293, 48 h, Table 1): 40000 ± 4000 nM | downregulation of VEGF gene expression (VEGF gene; [8]): more than 55% | mrna remaining at 25 µM (VEGF gene; [9]): 37 to 55%

COc1ccc(/C=C\c2cc(OC)c(OC)c(OC)c2)cc1NC(=O)[C@H](C)N [Compound 8.2]
mrna remaining at 0.003 µM (c-Myc gene; [10]): 97% | IC50 [1, 3]: < 5 nM | IC50 ([1]; Table 2): 3 ± 0.3 nM | CrC (critical concentration) (purified tubulin): 13.9 ± 1.5 µM | mrna remaining at 0.003 µM (hTERT gene; [10]): 74% | IC50 [2, 4]: < 5 nM | IC50 ([2]; Table 2): 4 ± 0.1 nM | mrna remaining at 0.003 µM (VEGF gene; [10]): 84%

COc1ccc(/C=C\c2cc(OC)c(OC)c(OC)c2)cc1NC(=O)[C@H](CCSC)NC(=O)OCC1c2ccccc2-c2ccccc21 [Compound 7.9]
mrna remaining at 0.03 µM (c-Myc gene; [11]): 61% | IC50 [1, 3]: 33 ± 20 nM | CrC (critical concentration) (purified tubulin): 7.1 ± 0.4 µM | mrna remaining at 0.03 µM (hTERT gene; [11]): 77% | IC50 [2, 4]: 8 ± 4 nM | mrna remaining at 0.03 µM (VEGF gene; [11]): 68%

COc1ccc(/C=C\c2cc(OC)c(OC)c(OC)c2)cc1N [AmCA-4, 3′-aminocombretastatin A-4]
mrna remaining at 0.015 µM (c-Myc gene; [12]): 58% | IC50 [1, 3]: 22 ± 1 nM | CrC (critical concentration) (purified tubulin): 23 ± 3 µM | mrna remaining at 0.015 µM (hTERT gene; [12]): 50% | IC50 [2, 4]: 7 ± 1 nM | mrna remaining at 0.015 µM (VEGF gene; [12]): 67%
